Results reported in US20220144841A1, “TRISUBSTITUTED PYRAZOLO [1,5-A] PYRIMIDINE COMPOUNDS AS CDK7 INHIBITORS” (THE TRANSLATIONAL GENOMICS RESEARCH INSTITUTE, priority 2019, published 2022).
Structures can show the parent of a compound that is named as a salt.

These compounds were tested against T1, CDK7/CycH/MAT1 (Homo sapiens, UniProt P50613) (assay: Kinase Glo Assay). Settings: Kinase-Glo Assay was used (compounds marked *), ATP 1 μM, 60 minutes at room temperature.
T1 construct: purchased ProQinase 0366-0360-4
T1 sequence (P50613 whole entry): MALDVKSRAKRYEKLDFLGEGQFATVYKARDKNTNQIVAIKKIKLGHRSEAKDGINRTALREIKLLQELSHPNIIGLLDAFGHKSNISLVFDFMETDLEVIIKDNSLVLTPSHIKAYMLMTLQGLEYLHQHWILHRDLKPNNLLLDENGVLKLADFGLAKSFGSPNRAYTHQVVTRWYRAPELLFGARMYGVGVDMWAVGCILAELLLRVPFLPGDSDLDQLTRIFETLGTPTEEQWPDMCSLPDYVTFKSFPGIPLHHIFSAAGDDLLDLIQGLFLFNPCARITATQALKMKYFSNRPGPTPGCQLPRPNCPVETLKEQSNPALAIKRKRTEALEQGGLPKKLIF
T1 sequence (P51946 whole entry partner): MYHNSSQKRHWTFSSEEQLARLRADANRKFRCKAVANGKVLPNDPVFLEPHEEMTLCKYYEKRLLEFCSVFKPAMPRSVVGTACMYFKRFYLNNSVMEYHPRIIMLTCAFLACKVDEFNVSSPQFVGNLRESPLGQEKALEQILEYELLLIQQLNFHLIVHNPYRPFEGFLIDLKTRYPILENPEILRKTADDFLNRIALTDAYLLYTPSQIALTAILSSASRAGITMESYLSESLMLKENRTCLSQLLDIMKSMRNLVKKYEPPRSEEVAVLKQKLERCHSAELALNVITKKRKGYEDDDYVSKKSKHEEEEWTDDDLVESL
T1 sequence (P51948 whole entry partner): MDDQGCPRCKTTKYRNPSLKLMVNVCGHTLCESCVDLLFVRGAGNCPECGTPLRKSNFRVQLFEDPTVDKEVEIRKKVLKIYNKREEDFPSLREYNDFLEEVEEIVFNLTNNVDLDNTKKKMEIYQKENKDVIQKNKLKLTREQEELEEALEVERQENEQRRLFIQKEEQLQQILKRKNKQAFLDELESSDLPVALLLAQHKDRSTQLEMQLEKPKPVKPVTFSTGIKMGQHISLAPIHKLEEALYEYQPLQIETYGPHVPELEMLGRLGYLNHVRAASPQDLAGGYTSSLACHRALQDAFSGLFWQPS
Assay type: biochemical
Protocol: (§1) Assay Buffer: 50 mM HEPES, 3 mM MgCl2, 3 mM MnCl2, 1 mM DTT, 3 μM Na3VO4, pH 7.5
Kinase-Glo™ Assay (Promega #: V6711): ATP: 10 mM, Kinase-Glo™ Reagent 384-well white assay plates
A ten point serial dilution of compound was prepared at 5× concentration in assay buffer with the final assay concentrations starting at 30 μM, 10 μM, 3 μM, 1 μM . . . 0 μM. Enzyme and ATP were used at 40 ng and 1 μM, respectively. The assay plate was set up by mixing the components in a total reaction volume of 10 μL per well. The plate was centrifuged gently for 10 seconds and incubated at room temperature (RT) for 60 minutes in the dark. The Kinase-Glo Reagent was added and incubated as recommended. The reaction was quantified by measuring luminescence on the Perkin Elmer Envision plate reader. Data was analyzed using Graphpad Prism 7 software.
With Clc1cccc(Nc2cc(N[C@H]3CCCNC3)nc3c(Cl)cnn23)c1 [Compound I-1, (S)-3-chloro-N^7-(3 - chlorophenyl)-N^5-(piperidin-3-yl)pyrazolo[1,5-a]pyrimidine-5,7-diamine] the IC50 was 100 to 1000 nM. For Fc1cccc(Nc2cc(N[C@H]3CCCNC3)nc3c(Cl)cnn23)c1 [Compound I-2, (S)-3-chloro-N^7-(3-fluorophenyl)-N^5-(piperidin-3-yl)pyrazolo[1,5-a]pyrimidine-5,7-diamine], the IC50 was less than 100 nM. O[C@H]1CCNC[C@@H]1Nc1cc(Nc2cccc(F)c2)n2ncc(Cl)c2n1 [Compound I-3, (3S,4S)-3-((3-chloro-7-((3-fluorophenyl)amino)pyrazolo [1,5-a]pyrimidin-5-yl)amino)piperidin-4-ol] was tested, and the IC50 was greater than 1000 nM. Fc1cccc(Nc2cc(N[C@H]3CCCCNC3)nc3c(C4CC4)cnn23)c1 [Compound I-5, (S)-N^5-(azepan-3-yl)-3-cyclopropyl-N^7-(3-fluorophenyl)pyrazolo[1,5-a]pyrimidine-5,7-diamine] was tested, and the IC50 was greater than 1000 nM. With Fc1cccc(Nc2cc(N[C@H]3CCCNC3)nc3c(C4CC4)cnn23)c1 [Compound I-19, hydrochloride] the IC50 was 100 to 1000 nM. Fc1cccc(Nc2cc(N[C@H]3CCCNC3)nc3c(C4CCC4)cnn23)c1 [Compound I-23, (S)-3-cyclobutyl-N^7-(3-fluorophenyl)-N^5-(piperidin-3-yl)pyrazolo[1,5-a]pyrimidine-5,7-diamine hydrochloride] gave an IC50 of 100 to 1000 nM. O[C@H]1CCNC[C@@H]1Nc1cc(Nc2cccc(F)c2)n2ncc(C3CCC3)c2n1 [Compound I-24, (3S,4S)-3-((3-cyclobutyl-7-((3-fluorophenyl)amino)pyrazolo [1,5-a]pyrimidin-5-yl)amino)piperidin-4-ol hydrochloride] showed an IC50 greater than 1000 nM. For N#Cc1cnn2c(NCc3cc(Cl)cc(Cl)c3)cc(N[C@H]3CCCNC3)nc12 [Compound I-26, (S)-7-((3,5-dichlorobenzyl)amino)-5-((piperidin-3-yl)amino)pyrazolo[1,5-a]pyrimidine-3-carbonitrile], the IC50 was 100 to 1000 nM. N#Cc1cnn2c(NCc3cc(F)cc(Cl)c3)cc(N[C@H]3CCCNC3)nc12 [Compound I-27, (S)-7-((3-chloro-5-fluorobenzyl)amino)-5-((piperidin-3-yl)amino)pyrazolo[1,5-a]pyrimidine-3-carbonitrile] showed an IC50 of 100 to 1000 nM. Compound N#Cc1cnn2c(NCc3cccc(Cl)c3)cc(N[C@H]3CCCNC3)nc12 [Compound I-28, (S)-7-((3-chlorobenzyl)amino)-5-((piperidin-3-yl)amino)pyrazolo[1,5-a]pyrimidine-3-carbonitrile] has an IC50 of 100 to 1000 nM. With Fc1cccc(CNc2cc(N[C@H]3CCCNC3)nc3c(C4CC4)cnn23)c1 [Compound I-32, (S)-3-cyclopropyl-N^7-(3-fluorobenzyl)-N^5-(piperidin-3-yl)pyrazolo[1,5-a]pyrimidine-5,7-diamine hydrochloride] the IC50 was 100 to 1000 nM. With OCCN1CCC[C@H](Nc2cc(NCc3cccc(F)c3)n3ncc(C4CC4)c3n2)C1 [Compound I-33, (S)-2-(3-((3-cyclopropyl-7-((3-fluorobenzyl)amino)pyrazolo [1,5-a]pyrimidin-5-yl)amino)piperidin-1-yl)ethan-l-ol] the IC50 was 100 to 1000 nM.

Each compound was assayed against T1, CDK7/CycH/MAT1 (assay: Kinase ADP-Glo Assay). Settings: ADP-Glo assay (compounds without *), ATP 1 μM, 60 minutes at room temperature.
Assay type: biochemical
Protocol: as §1
Substrate RB: CTF Peptide (ProQinase #: 0040-0000-6)
ADP-Glo™ Assay (Promega #: V9101): ATP: 10 mM, ADP-Glo™ Reagent, Kinase Detection Reagent
384-well white assay plates
A ten point serial dilution of compound was prepared at 5× concentration in assay buffer with the final assay concentrations starting at 30 μM, 10 μM, 3 μM, 1 μM . . . 0 μM. Enzyme, substrate, and ATP were used at 40 ng, 200 ng (or 400 ng)^+ and 1 μM, respectively. The assay plate was set up by mixing the components in a total reaction volume of 10 μL per well. The plate was centrifuged gently for 10 seconds and incubated at room temperature (RT) for 60 minutes in the dark. The ADP-Glo Reagent and kinase detection reagent were added and incubated as recommended. The reaction was quantified by measuring luminescence on the Perkin Elmer Envision plate reader. Data was analyzed using Graphpad Prism 7 software. *With CDK2 enzyme, 400 ng of substrate was used.
Work on Cc1cc(Nc2cc(N[C@H]3CCCNC3)nc3c(C4CC4)cnn23)cc(C(F)(F)F)c1 [Compound I-62, (S)-3-cyclopropyl-N^7-(5-methyl-3-trifluoromethylphenyl)-N^5-(piperidin-3-yl)pyrazolo[1,5-a]pyrimidine-5,7-diamine] yielded an IC50 of 100 to 1000 nM. Cc1cc(Nc2cc(N[C@H]3CCCNC3)nc3c(C4CCC4)cnn23)cc(C(F)(F)F)c1 [Compound I-63, (S)-3-cyclobutyl-N^7-(5-methyl-3-trifluoromethylphenyl)-N^5-(piperidin-3-yl)pyrazolo[1,5-a]pyrimidine-5,7-diamine] gave an IC50 of less than 100 nM. Fc1cc(Nc2cc(O[C@H]3CCCNC3)nc3c(C4CC4)cnn23)cc(C(F)(F)F)c1 [Compound I-64, (S)-3-cyclopropyl-N-(5-fluoro-3-trifluoromethylphenyl)-5-((piperidin-3-yl)oxy)pyrazolo[1,5-a]pyrimidin-7-amine] showed an IC50 of 100 to 1000 nM. With Fc1cc(Nc2cc(O[C@H]3CCCNC3)nc3c(C4CCC4)cnn23)cc(C(F)(F)F)c1 [Compound I-65, (S)-3-cyclobutyl-N-(5-fluoro-3-trifluoromethylphenyl)-5-((piperidin-3-yl)oxy)pyrazolo[1,5-a]pyrimidin-7-amine] the IC50 was less than 100 nM. Cc1cc(Nc2cc(O[C@H]3CCCNC3)nc3c(C4CCC4)cnn23)cc(C(F)(F)F)c1 [Compound I-66, (S)-3-cyclobutyl-N-(5-methyl-3-trifluoromethylphenyl)-5-((piperidin-3-yl)oxy)pyrazolo[1,5-a]pyrimidin-7-amine] showed an IC50 of less than 100 nM. Cc1cc(C#N)cc(Nc2cc(N[C@H]3CCCNC3)nc3c(C4CC4)cnn23)c1 [Compound I-67, (S)-3-((3-cyclopropyl-5-((piperidin-3-yl)amino)pyrazolo[1,5-a]pyrimidin-7-yl)amino)-5-methylbenzonitrile] was tested, and the IC50 was 100 to 1000 nM. Compound Cc1cc(C#N)cc(Nc2cc(N[C@H]3CCCNC3)nc3c(C4CCC4)cnn23)c1 [Compound I-68, (S)-3-((3-cyclobutyl-5-((piperidin-3-yl)amino)pyrazolo[1,5-a]pyrimidin-7-yl)amino)-5-methylbenzonitrile] has an IC50 of less than 100 nM. Cc1cc(C#N)cc(Nc2cc(O[C@H]3CCCNC3)nc3c(C4CC4)cnn23)c1 [Compound I-69, (S)-3-((3-cyclopropyl-5-((piperidin-3-yl)oxy)pyrazolo [1,5-a]pyrimidin-7-yl)amino)-5-methylbenzonitrile] showed an IC50 of less than 100 nM. Cc1cc(C#N)cc(Nc2cc(O[C@H]3CCCNC3)nc3c(C4CCC4)cnn23)c1 [Compound I-70, (S)-3-((3-cyclobutyl-5-((piperidin-3-yl)oxy)pyrazolo[1,5-a]pyrimidin-7-yl)amino)-5-methylbenzonitrile] gave an IC50 of less than 100 nM.
